Experimental data as given in patent US11858909B2, “Deuterated etoricoxib, methods of manufacture, and use thereof” (Tremeau Pharmaceuticals, Inc., priority 2021, dated 2024).
Read-outs that look alike come from different tables or passages of the source.

Assays:
[1] = Single dose crossover pharmacokinetic study in dogs; type: in vivo; details: for AUC / Cmax: male, dog, plasma, po, single oral (gavage) dose, d3-etoricoxib 2.00 mg/kg, etoricoxib 1.98 mg/kg
Procedure: A single dose crossover study was conducted to compare the pharmacokinetics of d3-etoricoxib and non-isotopically enriched etoricoxib in dogs. Four male dogs were dosed, and animals received each of the following treatments sequentially, with a minimum of four days washout between doses.
Blood samples were taken at 0.083, 0.25, 0.5, 1, 2, 4, 6, 8, 12, and 24 hours post-dose. Plasma was analyzed for d3-etoricoxib or non-isotopically enriched etoricoxib concentration.

human liver microsomes = assay: Metabolic stability with human liver microsomes (formation of M1 / d2-M1 metabolite); type: in vitro ADME; details: human liver microsomes 0.5 mg/mL, 1 μM, over 60 minutes, NADPH and UDPGA
Procedure: The metabolic stability of non-isotopically enriched etoricoxib and d3-etoricoxib, with human liver microsomes was evaluated.
Etoricoxib is extensively metabolized in humans with <1% of a dose recovered in urine as the parent drug. The primary pathway for metabolism of etoricoxib in humans is through the production of the methylhydroxy metabolite of etoricoxib (“M1”). Metabolism of etoricoxib involves conversion primarily to the “M1” derivative, mainly (ca. 60%) by CYP3A4, with less contribution by CYPs 1A2, 2C9, 2C19 and 2D6 (ca. 40% collectively). See, e.g., Arcoxia® (etoricoxib) Australian Product Information, available at http://apps.medicines.org.au/files/mkparcox.pdf (last visited Apr. 9, 2021), the contents of which are herein incorporated by reference in their entirety. Production of the “M1” metabolite and d3-etoricoxib (“d2-M1”) was evaluated in this experiment throughout the incubation period.

CYP3A4 [2] = biological target: T1, CYP3A4 (Homo sapiens, UniProt P08684); assay: Metabolic stability in CYP3A4 incubations (formation of methylhydroxy metabolites); type: in vitro ADME; set-up: purchased Corning 456202; details: for Formation of methylhydroxy metabolite relative to M1 formed from etoricoxib: human recombinant CYP3A4, over time (to 40 min), 1 μM; for Susceptibility to metabolism by CYP3A4 compared with non-isotopically enriched etoricoxib: human recombinant CYP3A4 incubations
T1 sequence (P08684 whole entry): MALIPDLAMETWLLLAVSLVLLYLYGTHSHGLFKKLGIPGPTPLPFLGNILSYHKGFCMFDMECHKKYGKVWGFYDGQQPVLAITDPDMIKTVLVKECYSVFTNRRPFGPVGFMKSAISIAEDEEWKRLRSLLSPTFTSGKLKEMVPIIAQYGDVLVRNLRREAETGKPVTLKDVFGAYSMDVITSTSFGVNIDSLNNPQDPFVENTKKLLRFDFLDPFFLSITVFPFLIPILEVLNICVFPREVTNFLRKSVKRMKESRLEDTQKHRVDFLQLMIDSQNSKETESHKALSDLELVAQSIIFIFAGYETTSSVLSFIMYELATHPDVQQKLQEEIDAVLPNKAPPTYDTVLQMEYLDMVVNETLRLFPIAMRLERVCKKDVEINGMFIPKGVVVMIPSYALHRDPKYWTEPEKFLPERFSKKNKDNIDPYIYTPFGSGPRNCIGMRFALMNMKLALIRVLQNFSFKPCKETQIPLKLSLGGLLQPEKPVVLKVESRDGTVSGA
Procedure: The metabolic stability of non-isotopically enriched etoricoxib, d3-etoricoxib, and an alternate deuterated form of etoricoxib, d4-etoricoxib (5-chloro-6′-methyl-3-(4-(methylsulfonyl)phenyl-2,3,5,6-d4)-2,3′-bipyridine, CAS No.: 1131345-14-6), in CYP3A4 incubations was evaluated. d4-Etoricoxib has the chemical structure:
Human recombinant CYP3A4 (Corning, item #456202, lot #9322001) was chosen for the assay conditions as CYP3A4 is the principle enzyme responsible for the metabolism of etoricoxib in humans. Formation of the methylhydroxy metabolites formed from etoricoxib, d3-etoricoxib, and d4-etoricoxib was monitored over time (Table 5, FIGS. 13 and 14).

[3] = humans; cited from earlier work
CYP3A4 [4] = biological target: T1, CYP3A4; details: humans; cited from earlier work
[5] = tested on: CYPs 1A2, 2C9, 2C19 and 2D6; details: humans; cited from earlier work
[6] = equivalent oral doses, four male dogs
[7] = four male dogs, oral (gavage), 2.00 vs 1.98 mg/kg
[8] = Animal 1001, male dog, read-out: AUC0.5-24 h
[9] = Animal 1001, male dog, read-out: Cmax
[10] = Animal 1002, male dog, read-out: AUC0.5-24 h
[11] = Animal 1002, male dog, read-out: Cmax
[12] = Animal 1003, male dog, read-out: AUC0.5-24 h
[13] = Animal 1003, male dog, read-out: Cmax
[14] = Animal 1004, male dog, read-out: AUC0.5-24 h
[15] = Animal 1004, male dog, read-out: Cmax
[16] = Mean (SD) of four male dogs, read-out: AUC0.5-24 h, Mean (SD)
[17] = Mean (SD) of four male dogs, read-out: Cmax, Mean (SD)

For `[2H]C([2H])([2H])c1ccc(-c2ncc(Cl)cc2-c2ccc(S(C)(=O)=O)cc2)cn1` [d3-etoricoxib, 5-chloro-6′-(methyl-d3)-3-(4-(methylsulfonyl)phenyl)-2,3′-bipyridine], the “Cmax relative to non-isotopically enriched etoricoxib” value [1, 6] was “higher Cmax”, the “Metabolism in dogs relative to non-isotopically enriched etoricoxib” value [1, 6] was “substantially resistant to metabolism” and the “Total exposure (AUC) relative to non-isotopically enriched etoricoxib” value [1, 6] was “higher total exposure”. The “AUC0.5-24 h, Average % delta d3-etoricoxib vs etoricoxib” value [1, 7] was “+48.6%”, the “Cmax, Average % delta d3-etoricoxib vs etoricoxib” value [1, 7] was “+54.9%” and the AUC [1, 8] was 516 ng·h/mL. It also gave a Cmax [1, 9] of 628 ng/mL, an AUC [1, 10] of 1020 ng·h/mL and a Cmax [1, 11] of 791 ng/mL. For the same molecule, the AUC [1, 12] was 1260 ng·h/mL, the Cmax [1, 13] was 593 ng/mL and the AUC [1, 14] was 658 ng·h/mL. The Cmax [1, 15] was 317 ng/mL, the AUC [1, 16] was 865 ng·h/mL and the Cmax [1, 17] was 604 ng/mL. For the same molecule, the “Amount of d2-M1 metabolite formed relative to M1 formed from etoricoxib” value (human liver microsomes) was “approximately three-fold less”, the “Formation of methylhydroxy metabolite relative to M1 formed from etoricoxib” value (CYP3A4 [2]) was “about six-fold lower” and the “Susceptibility to metabolism by CYP3A4 compared with non-isotopically enriched etoricoxib” value (CYP3A4 [2]) was “substantially different”.

With `[2H]c1c([2H])c(S(C)(=O)=O)c([2H])c([2H])c1-c1cc(Cl)cnc1-c1ccc(C)nc1` [d4-etoricoxib, 5-chloro-6′-methyl-3-(4-(methylsulfonyl)phenyl-2,3,5,6-d4)-2,3′-bipyridine, reference compound] the “Formation of methylhydroxy metabolite relative to M1 formed from etoricoxib” value (CYP3A4 [2]) was “similar” and the “Susceptibility to metabolism by CYP3A4 compared with non-isotopically enriched etoricoxib” value (CYP3A4 [2]) was “almost identical”.

With `Cc1ccc(-c2ncc(Cl)cc2-c2ccc(S(C)(=O)=O)cc2)cn1` [etoricoxib] the AUC [1, 8] was 342 ng·h/mL, the Cmax [1, 9] was 259 ng/mL and the AUC [1, 10] was 606 ng·h/mL. For the same molecule, the Cmax [1, 11] was 426 ng/mL, the AUC [1, 12] was 1130 ng·h/mL and the Cmax [1, 13] was 670 ng/mL. For the same molecule, the AUC [1, 14] was 336 ng·h/mL, the Cmax [1, 15] was 206 ng/mL and the AUC [1, 16] was 582 ng·h/mL. The Cmax [1, 17] was 390 ng/mL, the “Dose recovered in urine as the parent drug” value [3] was under 1% and the “Share of conversion to the M1 derivative by CYP3A4” value (CYP3A4 [4]) was “ca. 60%”. For the same molecule, the “Share of conversion to the M1 derivative by CYPs 1A2, 2C9, 2C19 and 2D6 collectively” value [5] was “ca. 40%”.
